Assays:
Format in all cases: biochemical
DMPK = molecular target: T1, DMPK (Homo sapiens, UniProt Q09013); experiment: kinase inhibition, DMPK
T1 sequence (Q09013 1-629): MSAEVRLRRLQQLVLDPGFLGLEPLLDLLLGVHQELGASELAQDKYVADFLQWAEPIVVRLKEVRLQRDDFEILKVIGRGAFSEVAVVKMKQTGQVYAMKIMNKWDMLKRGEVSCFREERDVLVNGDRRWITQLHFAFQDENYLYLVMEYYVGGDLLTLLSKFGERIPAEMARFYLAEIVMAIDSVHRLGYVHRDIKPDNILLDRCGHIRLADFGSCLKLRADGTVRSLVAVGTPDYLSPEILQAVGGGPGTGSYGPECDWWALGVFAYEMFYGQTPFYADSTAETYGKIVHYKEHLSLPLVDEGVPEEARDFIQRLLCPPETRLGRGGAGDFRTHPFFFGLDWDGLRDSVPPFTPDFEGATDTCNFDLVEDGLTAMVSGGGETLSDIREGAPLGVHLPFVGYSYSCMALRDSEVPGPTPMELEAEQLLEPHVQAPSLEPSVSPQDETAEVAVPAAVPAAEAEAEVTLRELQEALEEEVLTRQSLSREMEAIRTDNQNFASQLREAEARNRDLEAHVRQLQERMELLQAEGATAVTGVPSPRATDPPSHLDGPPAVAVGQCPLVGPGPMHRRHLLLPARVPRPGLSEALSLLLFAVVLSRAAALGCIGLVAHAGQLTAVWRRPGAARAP

NEK7 = NEK7 (Homo sapiens, UniProt Q8TDX7); experiment: kinase inhibition, NEK7
MERTK = molecular target: T2, MERTK (Homo sapiens, UniProt Q12866); experiment: kinase inhibition, MERTK
T2 sequence (Q12866 21-999): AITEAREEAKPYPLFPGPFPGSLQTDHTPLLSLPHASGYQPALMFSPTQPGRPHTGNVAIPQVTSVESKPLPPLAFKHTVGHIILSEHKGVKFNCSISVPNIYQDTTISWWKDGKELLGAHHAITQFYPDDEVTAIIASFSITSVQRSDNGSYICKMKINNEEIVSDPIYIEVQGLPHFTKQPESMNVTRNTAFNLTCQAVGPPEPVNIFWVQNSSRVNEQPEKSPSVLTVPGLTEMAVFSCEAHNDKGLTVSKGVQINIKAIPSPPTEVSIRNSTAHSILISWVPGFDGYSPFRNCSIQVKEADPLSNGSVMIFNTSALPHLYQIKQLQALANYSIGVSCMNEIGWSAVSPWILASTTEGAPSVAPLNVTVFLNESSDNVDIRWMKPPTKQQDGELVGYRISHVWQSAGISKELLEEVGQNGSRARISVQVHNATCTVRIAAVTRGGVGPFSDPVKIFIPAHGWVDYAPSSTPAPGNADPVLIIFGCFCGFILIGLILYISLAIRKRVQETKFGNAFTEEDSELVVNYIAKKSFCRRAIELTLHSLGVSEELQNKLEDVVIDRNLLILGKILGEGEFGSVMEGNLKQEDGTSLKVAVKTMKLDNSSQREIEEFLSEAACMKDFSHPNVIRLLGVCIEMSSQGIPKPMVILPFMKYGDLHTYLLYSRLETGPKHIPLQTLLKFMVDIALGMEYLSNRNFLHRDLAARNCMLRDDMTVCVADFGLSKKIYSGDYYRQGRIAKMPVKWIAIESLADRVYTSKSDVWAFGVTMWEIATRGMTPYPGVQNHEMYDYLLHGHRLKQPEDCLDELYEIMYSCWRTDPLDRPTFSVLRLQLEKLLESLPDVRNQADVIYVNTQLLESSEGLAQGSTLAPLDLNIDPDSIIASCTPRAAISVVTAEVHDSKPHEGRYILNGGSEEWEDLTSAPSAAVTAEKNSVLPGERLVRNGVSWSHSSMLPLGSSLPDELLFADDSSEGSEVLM

CLK = experiment: kinase inhibition, CLK
NEK2 = molecular target: T3, NEK2 (Homo sapiens, UniProt P51955); experiment: kinase inhibition, NEK2
T3 sequence (P51955 1-445): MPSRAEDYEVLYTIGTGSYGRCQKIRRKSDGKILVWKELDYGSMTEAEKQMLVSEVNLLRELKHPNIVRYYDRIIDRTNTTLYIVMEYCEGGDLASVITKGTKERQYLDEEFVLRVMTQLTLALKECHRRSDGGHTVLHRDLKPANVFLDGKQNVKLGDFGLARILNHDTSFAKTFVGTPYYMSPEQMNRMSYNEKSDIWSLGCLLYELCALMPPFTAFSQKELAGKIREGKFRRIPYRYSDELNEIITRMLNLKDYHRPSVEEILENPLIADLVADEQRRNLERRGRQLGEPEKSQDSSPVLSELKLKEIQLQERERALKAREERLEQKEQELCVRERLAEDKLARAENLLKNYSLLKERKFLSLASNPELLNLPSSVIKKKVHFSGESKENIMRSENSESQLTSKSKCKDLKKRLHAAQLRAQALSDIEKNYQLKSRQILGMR

AXL = molecular target: T4, AXL (Homo sapiens, UniProt P30530); experiment: kinase inhibition, AXL
T4 sequence (P30530 26-894): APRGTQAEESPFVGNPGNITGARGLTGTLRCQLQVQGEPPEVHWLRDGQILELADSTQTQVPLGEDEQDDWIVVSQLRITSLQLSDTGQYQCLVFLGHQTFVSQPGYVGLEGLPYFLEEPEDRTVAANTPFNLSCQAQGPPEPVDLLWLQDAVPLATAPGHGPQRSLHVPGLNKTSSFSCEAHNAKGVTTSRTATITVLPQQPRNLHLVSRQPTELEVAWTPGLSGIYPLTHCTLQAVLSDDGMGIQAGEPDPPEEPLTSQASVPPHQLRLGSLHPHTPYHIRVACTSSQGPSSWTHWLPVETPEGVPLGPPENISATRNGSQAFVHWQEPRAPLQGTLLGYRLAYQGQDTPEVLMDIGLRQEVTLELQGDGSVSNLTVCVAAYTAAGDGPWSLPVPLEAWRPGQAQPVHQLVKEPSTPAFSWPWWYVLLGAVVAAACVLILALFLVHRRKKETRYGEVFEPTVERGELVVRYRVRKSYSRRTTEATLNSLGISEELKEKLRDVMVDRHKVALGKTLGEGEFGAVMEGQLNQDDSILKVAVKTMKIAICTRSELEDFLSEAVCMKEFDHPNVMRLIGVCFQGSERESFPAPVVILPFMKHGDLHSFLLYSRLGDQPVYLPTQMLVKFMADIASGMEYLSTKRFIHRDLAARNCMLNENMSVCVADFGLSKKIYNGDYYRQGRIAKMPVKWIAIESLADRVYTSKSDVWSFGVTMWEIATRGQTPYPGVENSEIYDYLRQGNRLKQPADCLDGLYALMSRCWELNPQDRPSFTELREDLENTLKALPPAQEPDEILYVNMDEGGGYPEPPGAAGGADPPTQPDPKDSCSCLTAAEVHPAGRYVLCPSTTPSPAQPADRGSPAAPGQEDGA

Chain of NEK7 (Q8TDX7 whole entry, species assumed): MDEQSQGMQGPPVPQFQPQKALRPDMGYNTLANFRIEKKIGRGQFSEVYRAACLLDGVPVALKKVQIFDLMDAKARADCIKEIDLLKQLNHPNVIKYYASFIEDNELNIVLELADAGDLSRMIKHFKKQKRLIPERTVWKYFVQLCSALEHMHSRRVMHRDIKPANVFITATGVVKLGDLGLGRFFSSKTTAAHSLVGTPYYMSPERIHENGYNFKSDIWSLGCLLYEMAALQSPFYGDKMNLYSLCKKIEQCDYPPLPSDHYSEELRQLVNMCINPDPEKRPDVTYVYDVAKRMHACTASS

| IC50 (DMPK) [nM] | IC50 (NEK7) [nM] | IC50 (MERTK) [nM] | IC50 (CLK) [nM] | IC50 (NEK2) [nM] | IC50 (AXL) [nM] | Structure (SMILES) |
| --- | --- | --- | --- | --- | --- | --- |
| 50 to 250 | 250 to 1000 | 250 to 1000 | 50 to 250 | ≤ 50 | 50 to 250 | CN1CCN(c2ccc(Nc3ncc4c(n3)n3c(cc5ccccc53)c(=O)n4C)cc2)CC1 [Compound I-1] |
| ≥ 5000 | 50 to 250 | ≥ 5000 | 250 to 1000 | 50 to 250 | ≥ 5000 | COc1cc(N2CCC(O)CC2)ccc1Nc1ncc2c(n1)n1c(cc3ccccc31)c(=O)n2C [Compound I-2] |
| ≥ 5000 | 50 to 250 | ≥ 5000 | 1000 to 5000 | 50 to 250 | ≥ 5000 | COc1cc(N2CCN(C)CC2)ccc1Nc1ncc2c(n1)n1c(cc3ccccc31)c(=O)n2C [Compound I-3] |
| 250 to 1000 | 1000 to 5000 | ≥ 5000 | 50 to 250 | 50 to 250 | ≥ 5000 | COc1cc(C(=O)N2CCC(N3CCN(C)CC3)CC2)ccc1Nc1ncc2c(n1)n1c(cc3ccccc31)c(=O)n2C [Compound I-4] |
| ≥ 5000 | 1000 to 5000 | 1000 to 5000 | 1000 to 5000 | 50 to 250 | 1000 to 5000 | CN1CCN(c2ccc(Nc3ncc4c(n3)n3c(cc5ccccc53)c(=O)n4C)cc2C(F)(F)F)CC1 [Compound I-5] |
| 250 to 1000 | 50 to 250 | ≥ 5000 | 50 to 250 | ≤ 50 | 1000 to 5000 | COc1cc(C2CCN(C)CC2)ccc1Nc1ncc2c(n1)n1c(cc3ccccc31)c(=O)n2C [Compound I-6] |

Reference: patent publication US11279707B2, “NEK inhibitors and methods of use” (DANA-FARBER CANCER INSTITUTE, INC., priority 2017, dated 2022)
